Data from PubChem BioAssay (NCI).
“And” between values parts separate entries of the source, which are not always exact repeats. Equal entries are not always repeated.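 48-hour exposure; five concentrations; linearly interpolated endpoints. GI50 is the concentration that inhibits growth by half. Definition used: TGI = concentration required for complete inhibition of growth.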 Where a SMILES comes first, the peptide text is derived from it. [ ]: non-standard residue; d: D form. The star is where a group is joined. X13 = OC[C@H](CC1CCCCC1)N*; dIva = CC[C@@](C)(N)C(=O)O; Aib = CC(C)(N)C(=O)O

What follows are molecules tested on MDA-MB-468 breast (assay: inhibition of tumour cell growth, NCI panel, 48 h).
Molecule `O=C1/C(=C/c2ccccc2)CN(C(=O)c2cccnc2)C/C1=C\c1ccccc1` has a GI50 of 1820 nM and a TGI of 4240 nM.
Molecule `CC[C@@](C)(NC(=O)C(C)(C)NC(=O)[C@@H](NC(=O)[C@@H]1CCCN1C(=O)C(C)(C)NC(=O)[C@H](CC(C)C)NC(=O)CNC(=O)C(C)(C)NC(=O)[C@@H](NC(=O)C(C)(C)NC(=O)[C@H](CCC(N)=O)NC(=O)[C@H](C)NC(=O)C(C)(C)NC(=O)[C@H](C)NC(=O)C(C)(C)NC(=O)[C@H](C)NC(=O)C(C)(C)NC(C)=O)C(C)C)C(C)C)C(=O)N[C@@H](CCC(N)=O)C(=O)N[C@@H](CCC(N)=O)C(=O)N[C@H](CO)CC1CCCCC1` (Ac-[Aib]A[Aib]A[Aib]AQ[Aib]V[Aib]GL[Aib]PV[Aib][dIva]QQ-X13) has a GI50 of 747 nM and a TGI of 4080 nM.
With `Cc1cc2nc3c4cc(N)ccc4n(CCN(C)C)c3nc2cc1C` the GI50 was 1040 nM and the TGI was 2790 nM.
`C=C1C(=O)O[C@H]2[C@H]1CC/C(Cn1cc(-c3cc(C(F)(F)F)cc(C(F)(F)F)c3)nn1)=C\CC[C@@]1(C)O[C@@H]21` was tested, and the GI50 was 424 nM and the TGI was 1750 nM.
With `COC1CC2CCC(C)C(O)(O2)C(=O)C(=O)N2CCCCC2C(=O)OC(C(C)CC2CCC(O)C(OC)C2)CC(=O)C(C)C=C(C)C(O)C(OC)C(=O)C(C)CC(C)/C=C/C=C/C=C1C` (stereo not given) the GI50 was less than 5 nM and the TGI was 7350 nM.
`COc1ccccc1CCN=C1NC(=O)/C(=C/c2ccc3ncccc3c2)S1` was tested, and the GI50 was 4590 nM and the TGI was 16400 nM.
With `O=[N+]([O-])c1ccc(-c2nnc(SCc3ccc(O)c4ncccc34)o2)cc1` the GI50 was 396 nM and the TGI was greater than 100000 nM.
For `C/C(=N/Nc1nc2ccccc2n1C)c1ccccn1`, the GI50 was 31.9 nM and the TGI was 239 nM.
In the case of `O=c1c2ccccc2n(C[C@H]2CO2)c2ccccc12`, the GI50 is reported as 1830 nM and the TGI is reported as 3810 nM.
`CC[C@H](Nc1nc(NCc2cnc(C)cc2C)c2ncn(C(C)C)c2n1)[C@@H](C)O` showed a GI50 of 192 nM and a TGI of 470 nM.
In the case of `C#CCC(Cc1cnc2nc(N)nc(N)c2n1)c1ccc(C(=O)N[C@@H](CCC(=O)O)C(=O)O)cc1` (stereo not given in full), the GI50 is reported as less than 10 nM and the TGI is reported as greater than 20400 nM.
`COc1ccc(/C=C\c2cc(OC)c(OC)c(OC)c2)cc1OC(=O)c1cccc(Cn2cc(CCOC(=O)[C@H](N)Cc3cn(C)c4ccccc34)nn2)c1` gave a GI50 of less than 10 nM and a TGI of 3570 nM.
Molecule `CC1=C2C[C@H]3[C@@H](CC[C@@H]4CC(NS(C)(=O)=O)CC[C@@]43C)[C@@H]2CC[C@@]2(C1)O[C@@H]1C[C@H](C)CN[C@H]1[C@H]2C` (stereo not given in full) has a GI50 of 2000 nM and a TGI of 5620 nM.
With `O=C1NC(O)C(c2c[nH]c3ccccc23)=C1c1c[nH]c2ccccc12` (stereo not given) the GI50 was greater than 25000 nM and the TGI was greater than 25000 nM.
`COc1ccc(-c2nnc(SCc3ccc(O)c4ncccc34)n2-c2ccccc2)cc1` gave a GI50 of 810 nM and a TGI of 6570 nM.
`CC(C)(O)CS(=O)(=O)Nc1ccc2c(c1)CCN(C(=O)COc1cccnc1)C2` gave a GI50 greater than 100000 nM and a TGI greater than 100000 nM.
`Cn1c(/C=C(\C#N)c2ccccc2)nc2c(N3CCOCC3)nc(Cl)nc21` was tested, and the GI50 was 688 nM and the TGI was 2190 nM.
`Nc1c(Br)cc(Br)c2c1[nH]c(=O)c1ccccc12` was tested, and the GI50 was 550 nM and the TGI was 8900 nM.
In the case of `COC(=O)C1=C(C(=O)ON)C2C=CC1(C(Cc1ccccc1)Nc1ccccc1)O2` (stereo not given), the GI50 is reported as 1420 nM and the TGI is reported as 2800 nM.
In the case of `C/C(=N\Nc1cc(C)c2cc(C)ccc2n1)c1ccccn1`, the GI50 is reported as 65.4 nM and the TGI is reported as 318 nM.
For `CCn1c(CN2CCN(Cc3ccccc3)CC2)nc2cc(NC(=O)c3cccs3)ccc21`, the GI50 was 6160 nM and the TGI was 47100 nM.
`CC1(C)N=C(N)N=C(N)N1c1ccc(OCCCCOc2ccc(S(=O)(=O)F)cc2)c(Cl)c1` gave a GI50 of 188 nM and a TGI of 8800 nM.
For `O=C1c2cc3c(cc2-c2c1c1ccc(Cl)cc1c(=O)n2CCCNCCO)OCO3`, the GI50 was 85 nM and the TGI was 2350 nM.
`O=C(/C=C/c1cccnc1)NCCCCC1CCCN(C(=O)c2ccccc2)C1` (stereo not given) showed a GI50 of 13600 nM and a TGI greater than 100000 nM.
Work on `Ic1ccccc1-c1ccccc1` yielded a GI50 of 85000 nM and a TGI greater than 100000 nM.
With `CCC/C(=N/N=C(N)N)c1ccc(NC(=O)c2cc3cc(OC)ccc3[nH]2)cc1` the GI50 was 2340 nM and the TGI was 12100 nM.
Work on `Fc1ccc2c(c1)c(-c1nc(-c3c[nH]c4ncccc34)cs1)cn2CCCN1CCCCC1` yielded a GI50 of 1610 nM and a TGI of 3230 nM.
For `CCc1c(C#N)c(S[C@@H](C(N)=O)c2ccccc2)nc(N(C)C)c1C#N`, the GI50 was 6140 nM and the TGI was greater than 100000 nM.
`COc1cc(C)c(Cl)cc1C1=NN(c2ccc(S(N)(=O)=O)cc2)C(/C=C/c2ccccc2)C1` (stereo not given) showed a GI50 of 2140 nM and a TGI of 5790 nM.
`Cc1c(-c2c(-c3ccc(F)o3)sc3ncnc(O[C@H](Cc4ccccc4OCc4ccnn4CC(F)(F)F)C(=O)O)c23)ccc(OCCN2CCN(C)CC2)c1Cl` was tested, and the GI50 was 25.3 nM and the TGI was 105 nM.
In the case of `CCCc1cc2c(=O)c(C(=O)OC)c[nH]c2cc1N(CC)CC`, the GI50 is reported as 24400 nM and the TGI is reported as greater than 100000 nM.
Work on `COc1cc(NC2=C(Cl)C(=O)c3nc(C)ccc3C2=O)cc(OC)c1` yielded a GI50 of 1230 nM and a TGI of 2570 nM.
`Cc1ccccc1N=Nc1ccc(NC(=O)c2ccnn2C)c(C)c1` gave a GI50 of 3840 nM and a TGI of 70600 nM.
`CC(C)(C)c1nn(-c2ccccc2)c2c1C(=O)CSC(c1ccccc1Cl)N2` (stereo not given) showed a GI50 of 1010 nM and a TGI of 12100 nM.
`CCOC(=O)N1CCc2cc(OC)c(OC)c3c2c1cc1cc(OC)c(OC)cc13` showed a GI50 of 3170 nM and a TGI greater than 100000 nM.
Molecule `O=C(CNc1ccc2c(c1)C(=O)c1ccccc1C2=O)Nc1ccc2c(c1)C(=O)c1ccccc1C2=O` has a GI50 of 896 nM and a TGI of 2480 nM.
For `NC(N)=N/N=C\c1cccc(OCc2ccccc2)c1`, the GI50 was 1340 nM and the TGI was 2730 nM.
`C=C(C)[C@@H]1CC[C@]2(COC)CC[C@]3(C)[C@H](CC[C@@H]4[C@@]5(C)CCCNC(C)(C)[C@@H]5CC[C@]43C)[C@@H]12` was tested, and the GI50 was 1570 nM and the TGI was 3180 nM.
`CC(C)[C@H](CO)Nc1nc(Nc2ccc(C(=O)NCCNS(=O)(=O)c3cccc4c(N(C)C)cccc34)c(Cl)c2)c2ncn(C(C)C)c2n1` was tested, and the GI50 was 1690 nM and the TGI was 6750 nM.
For `COc1cc(-c2nn(-c3cccc(NC(=O)Nc4cc(C(F)(F)F)cc(C(F)(F)F)c4)c3)cc2-c2ccncc2)ccc1Cl`, the GI50 was 236 nM and the TGI was 2310 nM.
`COC(=O)c1c2c(c(C)[n+]([O-])c1C)C(=O)C=C(NCc1ccc(F)c(Cl)c1)C2=O` was tested, and the GI50 was 200 nM and the TGI was 712 nM.
With `C=CC(=O)N1CCN(c2nc(=O)n(-c3c(C)ccnc3C(C)C)c3nc(-c4c(O)cccc4F)c(F)cc23)[C@@H](C)C1` the GI50 was 22000 nM and the TGI was greater than 81100 nM.
Work on `O=C1C(=O)c2ccccc2C(O)=C1CC=C(Br)Br` yielded a GI50 of 11400 nM and a TGI of 41800 nM.
For `COc1ncc(-c2ccc3nccc(-c4ccnnc4)c3c2)cc1NS(=O)(=O)c1ccc(F)cc1F`, the GI50 was 2.7 nM and < 10 nM and the TGI was 26.6 nM and 15.8 nM.
With `CCOc1ccc(-c2nonc2NC(=O)c2cccc(C)c2)cc1OCC` the GI50 was 17600 nM and the TGI was 48800 nM.
